Key:
[1] = system: MDA-MB-231; assay: drug sensitivity score (DSS), cell viability CellTiter-Glo; higher = more sensitive; extreme values may be limits of the assay; settings: 72 h
[2] = system: MDA-MB-231; assay: drug sensitivity score (DSS), cytotoxicity CellTox Green; higher = more cytotoxic; extreme values may be limits of the assay; settings: 72 h
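Wherever drug sensitivity score (DSS), cytotoxicity CellTox Green is given: DSS summarises each dose–response curve by combining IC50, EC50, maximal inhibition and efficacy across drug concentrations.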

## CN(Cc1cnc2nc(N)nc(N)c2n1)c1ccc(C(=O)N[C@@H](CCC(=O)O)C(=O)O)cc1 [Methotrexate]
[1]; shRNA: shPPFIA1_1
  drug sensitivity score: 2.8 DSS
[1]; shRNA: shScramble
  drug sensitivity score: 4 DSS
[2]; shRNA: shPPFIA1_1
  drug sensitivity score: 0 DSS
[2]; shRNA: shScramble
  drug sensitivity score: 0 DSS

## C[C@H]1C[C@@H]2[C@H]([C@@H](O)C[C@@]3(C)[C@H]2CC[C@]3(O)C(=O)CO)[C@@]2(C)C=CC(=O)C=C12 [Methylprednisolone]
[1]; shRNA: shPPFIA1_1
  drug sensitivity score: 0 DSS
[1]; shRNA: shScramble
  drug sensitivity score: 0 DSS
[2]; shRNA: shPPFIA1_1
  drug sensitivity score: 0 DSS
[2]; shRNA: shScramble
  drug sensitivity score: 0 DSS

## CO[C@@H]1[C@H](N(C)C(=O)c2ccccc2)C[C@H]2O[C@]1(C)n1c3ccccc3c3c4c(c5c6ccccc6n2c5c31)C(=O)NC4 [Midostaurin]
[1]; shRNA: shPPFIA1_1
  drug sensitivity score: 0 DSS
[1]; shRNA: shScramble
  drug sensitivity score: 3.5 DSS
[2]; shRNA: shPPFIA1_1
  drug sensitivity score: 0 DSS
[2]; shRNA: shScramble
  drug sensitivity score: 0.1 DSS

## CNC(=O)c1nn(C)c2c1C(C)(C)Cc1cnc(Nc3ccc(N4CCN(C)CC4)cc3)nc1-2 [Milciclib]
[1]; shRNA: shPPFIA1_1
  drug sensitivity score: 0.9 DSS
[1]; shRNA: shScramble
  drug sensitivity score: 5.1 DSS
[2]; shRNA: shPPFIA1_1
  drug sensitivity score: 0.3 DSS
[2]; shRNA: shScramble
  drug sensitivity score: 0 DSS

## CO[C@@]12[C@H](COC(N)=O)C3=C(C(=O)C(C)=C(N)C3=O)N1C[C@@H]1N[C@@H]12 [Mitomycin C]
[1]; shRNA: shPPFIA1_1
  drug sensitivity score: 0 DSS
[1]; shRNA: shScramble
  drug sensitivity score: 0 DSS
[2]; shRNA: shPPFIA1_1
  drug sensitivity score: 0 DSS
[2]; shRNA: shScramble
  drug sensitivity score: 0 DSS

## Clc1ccc(C(c2ccccc2Cl)C(Cl)Cl)cc1 (centres undefined) [Mitotane]
[1]; shRNA: shPPFIA1_1
  drug sensitivity score: 0 DSS
[1]; shRNA: shScramble
  drug sensitivity score: 0 DSS
[2]; shRNA: shPPFIA1_1
  drug sensitivity score: 0 DSS
[2]; shRNA: shScramble
  drug sensitivity score: 0 DSS

## O=C1c2c(O)ccc(O)c2C(=O)c2c(NCCNCCO)ccc(NCCNCCO)c21 [Mitoxantrone]
[1]; shRNA: shPPFIA1_1
  drug sensitivity score: 0 DSS
[1]; shRNA: shScramble
  drug sensitivity score: 3.2 DSS
[2]; shRNA: shPPFIA1_1
  drug sensitivity score: 0 DSS
[2]; shRNA: shScramble
  drug sensitivity score: 0 DSS

## Nc1ccccc1NC(=O)c1ccc(CNc2nccc(-c3cccnc3)n2)cc1 [Mocetinostat]
[1]; shRNA: shPPFIA1_1
  drug sensitivity score: 3.6 DSS
[1]; shRNA: shScramble
  drug sensitivity score: 8.3 DSS
[2]; shRNA: shPPFIA1_1
  drug sensitivity score: 10.5 DSS
[2]; shRNA: shScramble
  drug sensitivity score: 4.8 DSS

## N#CCNC(=O)c1ccc(-c2ccnc(Nc3ccc(N4CCOCC4)cc3)n2)cc1 [Momelotinib]
[1]; shRNA: shPPFIA1_1
  drug sensitivity score: 0 DSS
[1]; shRNA: shScramble
  drug sensitivity score: 0 DSS
[2]; shRNA: shPPFIA1_1
  drug sensitivity score: 0 DSS
[2]; shRNA: shScramble
  drug sensitivity score: 0 DSS

## CC1(C)CNc2cc(NC(=O)c3cccnc3NCc3ccncc3)ccc21 [Motesanib]
[1]; shRNA: shPPFIA1_1
  drug sensitivity score: 0 DSS
[1]; shRNA: shScramble
  drug sensitivity score: 0 DSS
[2]; shRNA: shPPFIA1_1
  drug sensitivity score: 0 DSS
[2]; shRNA: shScramble
  drug sensitivity score: 0.3 DSS

## FC(F)(F)c1ccc(/C=C/c2nc(COc3ccc(CCCCn4ccnn4)cc3)co2)cc1 [Mubritinib]
[1]; shRNA: shPPFIA1_1
  drug sensitivity score: 2.1 DSS
[1]; shRNA: shScramble
  drug sensitivity score: 2 DSS
[2]; shRNA: shPPFIA1_1
  drug sensitivity score: 0 DSS
[2]; shRNA: shScramble
  drug sensitivity score: 0 DSS

## Cc1cc(OCc2nnc(SC3CCCC3)n2-c2cccnc2)ccc1-c1ccc(S(C)(=O)=O)cc1 [NMS-873]
[1]; shRNA: shPPFIA1_1
  drug sensitivity score: 6.8 DSS
[1]; shRNA: shScramble
  drug sensitivity score: 14.7 DSS
[2]; shRNA: shPPFIA1_1
  drug sensitivity score: 7.6 DSS
[2]; shRNA: shScramble
  drug sensitivity score: 7.4 DSS

## CCN1CCN(Cc2ccc(-c3cc4c(N[C@H](C)c5ccccc5)ncnc4[nH]3)cc2)CC1 [NVP-AEE788]
[1]; shRNA: shPPFIA1_1
  drug sensitivity score: 0.4 DSS
[1]; shRNA: shScramble
  drug sensitivity score: 0.8 DSS
[2]; shRNA: shPPFIA1_1
  drug sensitivity score: 0 DSS
[2]; shRNA: shScramble
  drug sensitivity score: 0 DSS

## CCN1CCN(c2ccc(Nc3cc(N(C)C(=O)Nc4c(Cl)c(OC)cc(OC)c4Cl)ncn3)cc2)CC1 [NVP-BGJ398]
[1]; shRNA: shPPFIA1_1
  drug sensitivity score: 0 DSS
[1]; shRNA: shScramble
  drug sensitivity score: 0 DSS
[2]; shRNA: shPPFIA1_1
  drug sensitivity score: 0 DSS
[2]; shRNA: shScramble
  drug sensitivity score: 0 DSS

## CNC(=O)c1ccc(-c2cnc3ncc(Cc4ccc5ncccc5c4)n3n2)cc1F [NVP-INC280]
[1]; shRNA: shPPFIA1_1
  drug sensitivity score: 4.5 DSS
[1]; shRNA: shScramble
  drug sensitivity score: 10.5 DSS
[2]; shRNA: shPPFIA1_1
  drug sensitivity score: 0 DSS
[2]; shRNA: shScramble
  drug sensitivity score: 0 DSS

## CC1(C)CCC(c2ccc(Cl)cc2)=C(CN2CCN(c3ccc(C(=O)NS(=O)(=O)c4ccc(N[C@H](CCN5CCOCC5)CSc5ccccc5)c(S(=O)(=O)C(F)(F)F)c4)cc3)CC2)C1 [Navitoclax]
[1]; shRNA: shPPFIA1_1
  drug sensitivity score: 4.4 DSS
[1]; shRNA: shScramble
  drug sensitivity score: 4.4 DSS
[2]; shRNA: shPPFIA1_1
  drug sensitivity score: 15.2 DSS
[2]; shRNA: shScramble
  drug sensitivity score: 12.4 DSS

— the supplement of paper PMC10920090
